In patent US20230295234A1, “ANTIMICROBIAL PEPTIDOMIMETICS” (SPEXIS AG, priority 2020, published 2023):
Bridge positions count the residues as written; N and C are the ends. Square brackets hold non-standard residues; d marks the D form. Peptide text beside a SMILES is read from it. Pro(4R-NH2) = N[C@H]1CN[C@H](C(=O)O)C1; Gly(N-2-aminoethyl) = NCCNCC(=O)O; Hyp = O=C(O)[C@@H]1C[C@@H](O)CN1; Gly(N(CH2)3NH2) = NCCCNCC(=O)O; Pen = CC(C)(S)[C@H](N)C(=O)O; dDab = NCC[C@@H](N)C(=O)O; Dab = NCC[C@H](N)C(=O)O; Nlys = NCCCCNCC(=O)O

Columns and labels:
[1] = system: Escherichia coli ATCC 25922; details: ATCC 25922
How it was run: (§1)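 Activity is measured against peptides serially diluted two-fold in water with 0.002% final Polysorbate 80. The cells are in cation-adjusted MHII broth at roughly 5×10^5 CFU/mL, prepared from a 0.5 McFarland suspension in 0.85% NaCl.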

[2] = system: Escherichia coli MCR-1 Af 45; details: MCR-1 Af 45
How it was run: as §1

[3] = system: Klebsiella pneumoniae SSI3010; details: SSI3010
How it was run: as §1

[4] = system: human red blood cells (hRBC); test: Hemolysis of human red blood cells; assay type: cell-based; details: red cells of human, 1 h
How it was run: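 PBS-washed human red blood cells (20% v/v) were incubated with peptide at 200 μg/mL for 1 h at 37 °C with shaking. Supernatant OD was read at 540 nm after 8-fold dilution. Hemolysis is expressed as percent of the water control.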

Structure (SMILES)	Escherichia coli ATCC 25922 MIC [1]	Escherichia coli MCR-1 Af 45 MIC [2]	Klebsiella pneumoniae SSI3010 MIC [3]	Hemolysis at 0.2 g/L [4]
CC[C@H](C)[C@H](NC(=O)[C@@H]1C[C@@H](N)CN1C(=O)[C@@H](NC(=O)[C@@H]1C[C@@H](O)CN1C(=O)CNCCCCN)C(C)C)C(=O)N[C@H](C(=O)N[C@@H](Cc1ccc(O)cc1)C(=O)N[C@@H]1C(=O)N[C@@H](CC(N)=O)C(=O)N[C@@H](CCCNC(=N)N)C(=O)N[C@@H](CCN)C(=O)N[C@@H]([C@@H](C)O)C(=O)N[C@H](CCN)C(=O)N[C@@H](CCCCN)C(=O)N[C@H](C(=O)N[C@@H](CCN)C(=O)N[C@@H](CCCNC(=N)N)C(=O)N[C@@H](Cc2ccc(O)cc2)C(=O)O)CSSC1(C)C)[C@@H](C)O [Example 46, Nlys-Hyp-Val-Pro((4R)NH2)-Ile-Thr-Tyr-Pen-Asn-Arg-Dab-Thr-^DDab-Lys-Cys-Dab-Arg-Tyr] (H-[Nlys][Hyp]V[Pro(4R-NH2)]ITY[Pen]NR[Dab]T[dDab]KC[Dab]RY-OH; disulfide 8-15)	≤0.03125 mg/L	≤0.03125 mg/L	0.125 mg/L	0%
CC[C@H](C)[C@H](NC(=O)CN(CCN)C(=O)[C@@H](NC(=O)[C@@H]1C[C@@H](O)CN1C(=O)[C@@H](N)CCCCN)C(C)C)C(=O)N[C@H](C(=O)N[C@@H](Cc1ccc(O)cc1)C(=O)N[C@@H]1C(=O)N[C@@H](CC(N)=O)C(=O)N[C@@H](CCCNC(=N)N)C(=O)N[C@@H](CCN)C(=O)N[C@@H]([C@@H](C)O)C(=O)N[C@H](CCN)C(=O)N[C@@H](CCCCN)C(=O)N[C@H](C(=O)N[C@@H](CCN)C(=O)N[C@@H](CCCNC(=N)N)C(=O)N[C@@H](Cc2ccc(O)cc2)C(=O)O)CSSC1(C)C)[C@@H](C)O [Example 47, Lys-Hyp-Val-Ndab-Ile-Thr-Tyr-Pen-Asn-Arg-Dab-Thr-^DDab-Lys-Cys-Dab-Arg-Tyr] (HELM PEPTIDE1{K.[Hyp].V.[NCCN(CC(=O)[*:2])[*:1]].I.T.Y.[Pen].N.R.[Dab].T.[NCC[C@@H](N[*:1])C(=O)[*:2]].K.C.[Dab].R.Y}$PEPTIDE1,PEPTIDE1,8:R3-15:R3$$$V2.0)	0.0625 mg/L	≤0.03125 mg/L	0.25 mg/L	0%
CC[C@H](C)[C@H](NC(=O)CN(CCN)C(=O)[C@@H](NC(=O)[C@@H]1C[C@@H](O)CN1C(=O)CNCCCN)C(C)C)C(=O)N[C@H](C(=O)N[C@@H](Cc1ccc(O)cc1)C(=O)N[C@@H]1C(=O)N[C@@H](CC(N)=O)C(=O)N[C@@H](CCCNC(=N)N)C(=O)N[C@@H](CCN)C(=O)N[C@@H]([C@@H](C)O)C(=O)N[C@H](CCN)C(=O)N[C@@H](CCCCN)C(=O)N[C@H](C(=O)N[C@@H](CCN)C(=O)N[C@@H](CCCNC(=N)N)C(=O)N[C@@H](Cc2ccc(O)cc2)C(=O)O)CSSC1(C)C)[C@@H](C)O [Example 48, Norn-Hyp-Val-Ndab-Ile-Thr-Tyr-Pen-Asn-Arg-Dab-Thr-^DDab-Lys-Cys-Dab-Arg-Tyr] (H-[Gly(N(CH2)3NH2)][Hyp]V[Gly(N-2-aminoethyl)]ITY[Pen]NR[Dab]T[dDab]KC[Dab]RY-OH; disulfide 8-15; N-terminus and C-terminus assumed)	0.125 mg/L	0.0625 mg/L	0.25 mg/L	0%
CC[C@H](C)[C@H](NC(=O)CN(CCN)C(=O)[C@@H](NC(=O)[C@@H]1C[C@@H](O)CN1C(=O)CNCCCCN)C(C)C)C(=O)N[C@H](C(=O)N[C@@H](Cc1ccc(O)cc1)C(=O)N[C@@H]1C(=O)N[C@@H](CC(N)=O)C(=O)N[C@@H](CCCNC(=N)N)C(=O)N[C@@H](CCN)C(=O)N[C@@H]([C@@H](C)O)C(=O)N[C@H](CCN)C(=O)N[C@@H](CCCCN)C(=O)N[C@H](C(=O)N[C@@H](CCN)C(=O)N[C@@H](CCCNC(=N)N)C(=O)N[C@@H](Cc2ccc(O)cc2)C(=O)O)CSSC1(C)C)[C@@H](C)O [Example 49, Nlys-Hyp-Val-Ndab-Ile-Thr-Tyr-Pen-Asn-Arg-Dab-Thr-^DDab-Lys-Cys-Dab-Arg-Tyr] (H-[Nlys][Hyp]V[Gly(N-2-aminoethyl)]ITY[Pen]NR[Dab]T[dDab]KC[Dab]RY-OH; disulfide 8-15; N-terminus and C-terminus assumed)	0.125 mg/L	0.125 mg/L	0.25 mg/L	0%
CC[C@H](C)[C@H](NC(=O)[C@@H]1C[C@@H](O)CN1C(=O)[C@@H](NC(=O)[C@@H]1C[C@@H](N)CN1C(=O)[C@@H](N)CCCCN)C(C)C)C(=O)N[C@H](C(=O)N[C@@H](Cc1ccc(O)cc1)C(=O)N[C@@H]1C(=O)N[C@@H](CC(N)=O)C(=O)N[C@@H](CCCNC(=N)N)C(=O)N[C@@H](CCN)C(=O)N[C@@H]([C@@H](C)O)C(=O)N[C@H](CCN)C(=O)N[C@@H](CCCCN)C(=O)N[C@H](C(=O)N[C@@H](CCN)C(=O)N[C@@H](CCCNC(=N)N)C(=O)N[C@@H](Cc2ccc(O)cc2)C(=O)O)CSSC1(C)C)[C@@H](C)O [Example 50, Lys-Pro((4R)NH2)-Val-Hyp-Ile-Thr-Tyr-Pen-Asn-Arg-Dab-Thr-^DDab-Lys-Cys-Dab-Arg-Tyr] (HELM PEPTIDE1{K.[N[C@@H]1C[C@@H](C(=O)[*:2])N([*:1])C1].V.[Hyp].I.T.Y.[Pen].N.R.[Dab].T.[NCC[C@@H](N[*:1])C(=O)[*:2]].K.C.[Dab].R.Y}$PEPTIDE1,PEPTIDE1,8:R3-15:R3$$$V2.0)	0.125 mg/L	0.0625 mg/L	0.125 mg/L	0%
CC[C@H](C)[C@H](NC(=O)[C@@H]1C[C@@H](O)CN1C(=O)[C@@H](NC(=O)CN(CCN)C(=O)[C@@H](N)CCCCN)C(C)C)C(=O)N[C@H](C(=O)N[C@@H](Cc1ccc(O)cc1)C(=O)N[C@@H]1C(=O)N[C@@H](CC(N)=O)C(=O)N[C@@H](CCCNC(=N)N)C(=O)N[C@@H](CCN)C(=O)N[C@@H]([C@@H](C)O)C(=O)N[C@H](CCN)C(=O)N[C@@H](CCCCN)C(=O)N[C@H](C(=O)N[C@@H](CCN)C(=O)N[C@@H](CCCNC(=N)N)C(=O)N[C@@H](Cc2ccc(O)cc2)C(=O)O)CSSC1(C)C)[C@@H](C)O [Example 53, Lys-Ndab-Val-Hyp-Ile-Thr-Tyr-Pen-Asn-Arg-Dab-Thr-^DDab-Lys-Cys-Dab-Arg-Tyr] (HELM PEPTIDE1{K.[NCCN(CC(=O)[*:2])[*:1]].V.[Hyp].I.T.Y.[Pen].N.R.[Dab].T.[NCC[C@@H](N[*:1])C(=O)[*:2]].K.C.[Dab].R.Y}$PEPTIDE1,PEPTIDE1,8:R3-15:R3$$$V2.0)	0.0625 mg/L	≤0.03125 mg/L	0.0625 mg/L	0%
CC[C@H](C)[C@H](NC(=O)[C@@H]1C[C@@H](O)CN1C(=O)[C@@H](NC(=O)CN(CCN)C(=O)CNCCN)C(C)C)C(=O)N[C@H](C(=O)N[C@@H](Cc1ccc(O)cc1)C(=O)N[C@@H]1C(=O)N[C@@H](CC(N)=O)C(=O)N[C@@H](CCCNC(=N)N)C(=O)N[C@@H](CCN)C(=O)N[C@@H]([C@@H](C)O)C(=O)N[C@H](CCN)C(=O)N[C@@H](CCCCN)C(=O)N[C@H](C(=O)N[C@@H](CCN)C(=O)N[C@@H](CCCNC(=N)N)C(=O)N[C@@H](Cc2ccc(O)cc2)C(=O)O)CSSC1(C)C)[C@@H](C)O [Example 54, Ndab-Ndab-Val-Hyp-Ile-Thr-Tyr-Pen-Asn-Arg-Dab-Thr-^DDab-Lys-Cys-Dab-Arg-Tyr] (H-[Gly(N-2-aminoethyl)][Gly(N-2-aminoethyl)]V[Hyp]ITY[Pen]NR[Dab]T[dDab]KC[Dab]RY-OH; disulfide 8-15)	0.125 mg/L	0.125 mg/L	0.25 mg/L	0%
CC[C@H](C)[C@H](NC(=O)[C@@H]1C[C@@H](O)CN1C(=O)[C@@H](NC(=O)CN(CCN)C(=O)CNCCCN)C(C)C)C(=O)N[C@H](C(=O)N[C@@H](Cc1ccc(O)cc1)C(=O)N[C@@H]1C(=O)N[C@@H](CC(N)=O)C(=O)N[C@@H](CCCNC(=N)N)C(=O)N[C@@H](CCN)C(=O)N[C@@H]([C@@H](C)O)C(=O)N[C@H](CCN)C(=O)N[C@@H](CCCCN)C(=O)N[C@H](C(=O)N[C@@H](CCN)C(=O)N[C@@H](CCCNC(=N)N)C(=O)N[C@@H](Cc2ccc(O)cc2)C(=O)O)CSSC1(C)C)[C@@H](C)O [Example 55, Norn-Ndab-Val-Hyp-Ile-Thr-Tyr-Pen-Asn-Arg-Dab-Thr-^DDab-Lys-Cys-Dab-Arg-Tyr] (H-[Gly(N(CH2)3NH2)][Gly(N-2-aminoethyl)]V[Hyp]ITY[Pen]NR[Dab]T[dDab]KC[Dab]RY-OH; disulfide 8-15)	≤0.03125 mg/L	≤0.03125 mg/L	0.125 mg/L	0%
CC[C@H](C)[C@H](NC(=O)[C@@H]1C[C@@H](O)CN1C(=O)[C@@H](NC(=O)CN(CCN)C(=O)CNCCCCN)C(C)C)C(=O)N[C@H](C(=O)N[C@@H](Cc1ccc(O)cc1)C(=O)N[C@@H]1C(=O)N[C@@H](CC(N)=O)C(=O)N[C@@H](CCCNC(=N)N)C(=O)N[C@@H](CCN)C(=O)N[C@@H]([C@@H](C)O)C(=O)N[C@H](CCN)C(=O)N[C@@H](CCCCN)C(=O)N[C@H](C(=O)N[C@@H](CCN)C(=O)N[C@@H](CCCNC(=N)N)C(=O)N[C@@H](Cc2ccc(O)cc2)C(=O)O)CSSC1(C)C)[C@@H](C)O [Example 56, Nlys-Ndab-Val-Hyp-Ile-Thr-Tyr-Pen-Asn-Arg-Dab-Thr-^DDab-Lys-Cys-Dab-Arg-Tyr] (H-[Nlys][Gly(N-2-aminoethyl)]V[Hyp]ITY[Pen]NR[Dab]T[dDab]KC[Dab]RY-OH; disulfide 8-15)	0.0625 mg/L	0.0625 mg/L	0.125 mg/L	0%
